Experimental data as given in the supplement of paper PMC6288085.

Assays:
[1] = tested on: Caenorhabditis elegans N2; test: food intake (delta OD600 day1-day4, bacterial clearance) (OD600 units); higher = more food eaten; conditions: genotype: wt, 72 h
[2] = tested on: Caenorhabditis elegans; test: as above; conditions: 72 h
Method: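 C. elegans N2 or ser-5(vq1) knockout adults in 96-well plates treated with olanzapine, quetiapine, ziprasidone or serotonin over a dose range. Food intake was measured as bacterial clearance, delta OD600 from day 1 to day 4 per well (14-21 replicate wells of 5-15 animals).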

CN1CC2c3ccccc3Oc3ccc(Cl)cc3C2C1 (stereo not drawn) [Asenapine]
[1]
Conditions | food intake
0.01 µM | 0.00861
0.03 µM | 0.0107
0.1 µM | 0.0122
0.3 µM | 0.0127
1 µM | 0.0127
3 µM | 0.0112

CN(C)CCCN1c2ccccc2Sc2ccc(Cl)cc21 [Chlorpromazine]
[1]
Conditions | food intake
0.05 µM | 0.0145
0.1 µM | 0.0149
0.2 µM | 0.0171
0.5 µM | 0.0191
0.75 µM | 0.0204
1 µM | 0.0201
2 µM | 0.0233
5 µM | 0.0214

CN(C)CC/C=C1/c2ccccc2Sc2ccc(Cl)cc21 [Chlorprothixene]
[1]
Conditions | food intake
0.4 µM | 0.0203
2 µM | 0.0255
10 µM | 0.0194

CN1CCN(C2=Nc3ccccc3Oc3ccc(Cl)cc32)CC1 [Loxapine]
[1]
Conditions | food intake
0.05 µM | 0.0139
0.5 µM | 0.0143
5 µM | 0.0196
10 µM | 0.0212
20 µM | 0.0217
50 µM | 0.0234
100 µM | 0.023
200 µM | 0.0195

Cc1cc2c(s1)Nc1ccccc1N=C2N1CCN(C)CC1 [Olanzapine]
[1]
Conditions | food intake
0.05 µM | 0.0155
0.5 µM | 0.0153
5 µM | 0.0152
10 µM | 0.0159
20 µM | 0.015
50 µM | 0.0149
100 µM | 0.0184
200 µM | 0.0186

food intake, [2]
Conditions | 0.5 µM | 5 µM | 20 µM | 50 µM | 100 µM | 200 µM
genotype: ser-5(vq1) | 0.0069 | 0.00729 | 0.0081 | 0.00845 | 0.00859 | 0.00839
genotype: wt | 0.00731 | 0.00919 | 0.0102 | 0.0117 | 0.0138 | 0.0148

OCCOCCN1CCN(C2=Nc3ccccc3Sc3ccccc32)CC1 [Quetiapine]
[1]
Conditions | food intake
0.1 µM | 0.00598
3 µM | 0.00727
10 µM | 0.00847
30 µM | 0.0103
100 µM | 0.0115
200 µM | 0.0118

food intake, [2]
Conditions | 0.1 µM | 3 µM | 10 µM | 30 µM | 100 µM | 200 µM
genotype: ser-5(vq1) | 0.00593 | 0.00574 | 0.00662 | 0.00674 | 0.00602 | 0.0055
genotype: wt | 0.00754 | 0.00775 | 0.00993 | 0.0118 | 0.0127 | 0.0103

NCCc1c[nH]c2ccc(O)cc12 [Serotonin]
food intake, [2]
Conditions | 100 µM | 500 µM | 1000 µM | 2000 µM | 5000 µM | 10000 µM
genotype: ser-5(vq1) | 0.00664 | 0.00869 | 0.0118 | 0.0155 | 0.0182 | 0.0182
genotype: wt | 0.00773 | 0.00951 | 0.0142 | 0.0176 | 0.0199 | 0.0189

O=C1Cc2cc(CCN3CCN(c4nsc5ccccc45)CC3)c(Cl)cc2N1 [Ziprasidone]
[1]
Conditions | food intake
0.01 µM | 0.00881
0.03 µM | 0.0107
0.1 µM | 0.0128
0.3 µM | 0.0136
1 µM | 0.0136
3 µM | 0.0138

food intake, [2]
Conditions | 0.01 µM | 0.03 µM | 0.1 µM | 0.3 µM | 1 µM | 3 µM
genotype: ser-5(vq1) | 0.00508 | 0.00569 | 0.00662 | 0.00664 | 0.00712 | 0.0061
genotype: wt | 0.00821 | 0.00974 | 0.0135 | 0.0153 | 0.0145 | 0.0145
